# What was measured:
# Assay in all cases: pIC50, kinobeads binding competition
# [1] = biological target: UniProt Q15418
# How it was run: (§1)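 Nine compound concentrations were tested, starting at 30 μM in 1:4 steps on live Jurkat cells (60 min, 37 °C, then lysis) or in 1:5 steps on Jurkat lysate or a 1:1:1:1 HEK293/K-562/HepG2/placenta lysate mix (60 min, 4 °C). Kinobeads-bound proteins were digested and quantified with TMT10 LC-MS/MS. pIC50 values are from logistic dose-response fits in the R drc package of fold changes relative to vehicle, from biological duplicates.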
# [2] = biological target: T1, EPHB4 (UniProt P54760); details: cell material: Lysate mix
# T1 sequence (whole entry): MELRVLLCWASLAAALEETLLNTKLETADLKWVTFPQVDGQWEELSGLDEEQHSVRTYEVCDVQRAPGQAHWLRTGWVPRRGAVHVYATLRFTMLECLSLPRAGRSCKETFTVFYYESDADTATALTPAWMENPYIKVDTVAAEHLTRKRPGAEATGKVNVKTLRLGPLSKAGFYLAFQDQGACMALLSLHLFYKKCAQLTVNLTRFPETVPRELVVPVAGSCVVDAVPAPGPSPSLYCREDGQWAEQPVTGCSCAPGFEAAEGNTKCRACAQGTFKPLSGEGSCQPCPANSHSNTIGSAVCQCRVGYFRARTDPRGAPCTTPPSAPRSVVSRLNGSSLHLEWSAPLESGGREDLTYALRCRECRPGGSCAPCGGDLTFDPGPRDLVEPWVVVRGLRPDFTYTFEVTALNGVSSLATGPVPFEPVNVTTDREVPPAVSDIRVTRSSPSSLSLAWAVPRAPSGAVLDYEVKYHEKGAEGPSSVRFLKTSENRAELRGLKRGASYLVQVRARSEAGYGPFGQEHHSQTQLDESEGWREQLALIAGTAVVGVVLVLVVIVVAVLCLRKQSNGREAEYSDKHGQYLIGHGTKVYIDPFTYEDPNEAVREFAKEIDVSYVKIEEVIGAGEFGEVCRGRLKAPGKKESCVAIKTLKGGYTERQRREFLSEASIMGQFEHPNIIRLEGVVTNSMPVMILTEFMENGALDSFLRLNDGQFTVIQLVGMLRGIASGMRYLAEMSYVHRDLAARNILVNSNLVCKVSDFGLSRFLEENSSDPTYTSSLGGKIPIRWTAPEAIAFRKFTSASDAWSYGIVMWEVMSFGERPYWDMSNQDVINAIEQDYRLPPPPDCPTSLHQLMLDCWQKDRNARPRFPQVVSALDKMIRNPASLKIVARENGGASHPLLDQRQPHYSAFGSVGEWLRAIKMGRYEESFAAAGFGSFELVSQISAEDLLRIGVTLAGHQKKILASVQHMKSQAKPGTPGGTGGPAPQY
# How it was run: as §1
# [3] = biological target: UniProt Q16659
# Chain of UniProt Q16659 (Q16659 whole entry): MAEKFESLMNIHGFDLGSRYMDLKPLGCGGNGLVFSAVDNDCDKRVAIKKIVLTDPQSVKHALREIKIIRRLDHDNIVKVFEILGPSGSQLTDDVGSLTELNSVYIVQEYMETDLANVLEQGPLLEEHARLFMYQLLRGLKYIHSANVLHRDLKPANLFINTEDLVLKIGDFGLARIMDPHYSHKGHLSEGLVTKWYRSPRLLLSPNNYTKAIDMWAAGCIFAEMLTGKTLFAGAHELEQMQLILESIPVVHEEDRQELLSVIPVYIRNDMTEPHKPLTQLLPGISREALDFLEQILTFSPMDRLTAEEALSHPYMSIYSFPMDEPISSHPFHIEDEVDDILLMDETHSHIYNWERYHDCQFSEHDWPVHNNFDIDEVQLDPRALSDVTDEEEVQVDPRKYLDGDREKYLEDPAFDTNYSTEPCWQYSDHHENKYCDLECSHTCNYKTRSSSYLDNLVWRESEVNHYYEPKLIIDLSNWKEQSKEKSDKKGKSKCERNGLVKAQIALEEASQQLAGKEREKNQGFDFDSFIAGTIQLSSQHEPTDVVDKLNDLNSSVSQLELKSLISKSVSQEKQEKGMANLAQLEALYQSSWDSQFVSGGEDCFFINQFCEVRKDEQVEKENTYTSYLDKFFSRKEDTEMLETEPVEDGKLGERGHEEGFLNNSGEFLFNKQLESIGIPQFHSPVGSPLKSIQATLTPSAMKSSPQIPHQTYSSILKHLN
# How it was run: as §1
# [4] = biological target: HIPK1 (UniProt Q86Z02)
# Chain of HIPK1 (Q86Z02 whole entry, looked up): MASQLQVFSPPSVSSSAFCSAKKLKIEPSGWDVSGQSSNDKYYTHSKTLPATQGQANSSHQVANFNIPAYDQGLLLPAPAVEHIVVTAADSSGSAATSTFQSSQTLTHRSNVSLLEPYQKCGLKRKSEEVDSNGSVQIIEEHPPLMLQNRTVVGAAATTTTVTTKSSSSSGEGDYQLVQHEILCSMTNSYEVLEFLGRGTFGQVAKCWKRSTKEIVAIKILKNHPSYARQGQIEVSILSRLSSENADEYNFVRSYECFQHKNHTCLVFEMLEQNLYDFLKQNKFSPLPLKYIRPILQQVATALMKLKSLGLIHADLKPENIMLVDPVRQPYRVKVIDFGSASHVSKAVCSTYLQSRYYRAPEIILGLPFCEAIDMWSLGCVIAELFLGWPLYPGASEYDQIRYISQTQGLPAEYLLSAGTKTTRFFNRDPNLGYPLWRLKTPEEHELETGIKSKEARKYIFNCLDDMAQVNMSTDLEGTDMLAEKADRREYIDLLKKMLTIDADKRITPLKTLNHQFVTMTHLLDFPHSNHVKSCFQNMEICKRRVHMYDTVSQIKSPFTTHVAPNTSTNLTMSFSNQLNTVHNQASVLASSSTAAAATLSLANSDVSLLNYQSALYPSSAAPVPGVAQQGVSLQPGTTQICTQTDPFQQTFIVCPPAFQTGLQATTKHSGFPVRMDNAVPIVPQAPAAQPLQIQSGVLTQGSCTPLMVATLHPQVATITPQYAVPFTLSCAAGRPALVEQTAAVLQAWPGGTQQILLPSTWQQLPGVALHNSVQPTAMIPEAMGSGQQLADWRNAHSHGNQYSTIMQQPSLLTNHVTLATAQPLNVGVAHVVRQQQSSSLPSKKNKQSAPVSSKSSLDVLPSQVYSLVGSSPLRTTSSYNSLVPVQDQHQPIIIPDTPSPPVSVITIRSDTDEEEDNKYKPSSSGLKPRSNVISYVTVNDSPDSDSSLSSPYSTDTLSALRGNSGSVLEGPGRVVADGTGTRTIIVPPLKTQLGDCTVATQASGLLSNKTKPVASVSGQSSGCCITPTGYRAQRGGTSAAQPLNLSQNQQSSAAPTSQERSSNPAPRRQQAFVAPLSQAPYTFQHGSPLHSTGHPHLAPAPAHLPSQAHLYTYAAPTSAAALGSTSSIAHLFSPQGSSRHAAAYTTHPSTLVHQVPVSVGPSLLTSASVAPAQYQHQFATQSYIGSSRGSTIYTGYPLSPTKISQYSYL
# How it was run: as §1
# [5] = biological target: T2, PRKD2 (UniProt Q9BZL6)
# T2 sequence (whole entry): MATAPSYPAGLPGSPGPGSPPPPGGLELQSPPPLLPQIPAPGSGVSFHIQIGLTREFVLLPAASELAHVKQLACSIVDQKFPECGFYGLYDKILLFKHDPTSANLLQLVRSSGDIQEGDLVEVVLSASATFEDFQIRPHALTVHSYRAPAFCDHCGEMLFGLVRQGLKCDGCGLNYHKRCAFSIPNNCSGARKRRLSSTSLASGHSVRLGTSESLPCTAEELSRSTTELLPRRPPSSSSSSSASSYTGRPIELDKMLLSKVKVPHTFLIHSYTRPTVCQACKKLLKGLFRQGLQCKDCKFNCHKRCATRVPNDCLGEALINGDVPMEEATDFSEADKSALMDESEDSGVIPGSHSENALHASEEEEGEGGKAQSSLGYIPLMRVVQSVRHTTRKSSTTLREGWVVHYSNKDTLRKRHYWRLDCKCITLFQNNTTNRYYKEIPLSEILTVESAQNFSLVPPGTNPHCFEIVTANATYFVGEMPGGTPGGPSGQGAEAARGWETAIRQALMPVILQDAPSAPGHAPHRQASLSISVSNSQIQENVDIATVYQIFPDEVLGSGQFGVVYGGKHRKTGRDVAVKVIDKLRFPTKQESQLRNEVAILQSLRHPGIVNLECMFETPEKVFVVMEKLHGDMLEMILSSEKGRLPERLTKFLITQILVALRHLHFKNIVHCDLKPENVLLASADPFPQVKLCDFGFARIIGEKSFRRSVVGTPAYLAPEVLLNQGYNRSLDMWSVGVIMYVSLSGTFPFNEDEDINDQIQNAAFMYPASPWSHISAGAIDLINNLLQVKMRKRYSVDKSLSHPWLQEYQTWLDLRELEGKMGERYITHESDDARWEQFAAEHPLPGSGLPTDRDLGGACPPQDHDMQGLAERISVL
# How it was run: as §1
# [6] = biological target: CDK6 (UniProt Q00534)
# Chain of CDK6 (Q00534 whole entry): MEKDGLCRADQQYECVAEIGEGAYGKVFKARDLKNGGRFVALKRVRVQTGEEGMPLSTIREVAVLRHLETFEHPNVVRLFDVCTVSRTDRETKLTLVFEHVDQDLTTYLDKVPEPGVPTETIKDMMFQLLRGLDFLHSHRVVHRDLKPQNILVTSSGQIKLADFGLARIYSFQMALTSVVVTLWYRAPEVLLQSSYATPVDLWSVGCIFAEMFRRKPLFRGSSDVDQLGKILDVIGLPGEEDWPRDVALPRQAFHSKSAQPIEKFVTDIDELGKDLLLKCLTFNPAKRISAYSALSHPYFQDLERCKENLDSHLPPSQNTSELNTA
# How it was run: as §1
# Chain of UniProt Q15418 (Q15418 whole entry): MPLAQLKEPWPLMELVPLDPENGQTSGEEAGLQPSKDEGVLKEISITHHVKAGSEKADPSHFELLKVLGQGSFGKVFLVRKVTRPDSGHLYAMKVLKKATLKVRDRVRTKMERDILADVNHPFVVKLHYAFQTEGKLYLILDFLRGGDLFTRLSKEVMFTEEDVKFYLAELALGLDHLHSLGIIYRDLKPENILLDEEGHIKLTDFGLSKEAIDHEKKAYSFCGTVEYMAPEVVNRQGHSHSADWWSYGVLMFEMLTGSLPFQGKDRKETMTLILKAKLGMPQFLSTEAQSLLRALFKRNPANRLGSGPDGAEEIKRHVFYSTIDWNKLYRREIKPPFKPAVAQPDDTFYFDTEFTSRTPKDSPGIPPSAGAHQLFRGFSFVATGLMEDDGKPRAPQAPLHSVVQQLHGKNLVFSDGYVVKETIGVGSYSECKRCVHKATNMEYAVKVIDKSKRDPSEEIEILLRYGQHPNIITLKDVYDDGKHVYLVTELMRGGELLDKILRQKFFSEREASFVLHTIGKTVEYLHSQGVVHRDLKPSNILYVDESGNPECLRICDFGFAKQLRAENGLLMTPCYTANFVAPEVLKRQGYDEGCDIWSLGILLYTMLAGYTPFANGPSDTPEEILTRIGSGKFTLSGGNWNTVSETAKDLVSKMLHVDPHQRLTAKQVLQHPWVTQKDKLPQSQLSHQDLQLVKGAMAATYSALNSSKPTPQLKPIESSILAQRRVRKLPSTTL
SMILES,pIC50 ([1]; cell material: Lysate mix),pIC50 [2],pIC50 ([3]; cell material: Lysate mix),pIC50 ([4]; cell material: Lysate mix),pIC50 ([5]; cell material: Lysate mix),pIC50 ([6]; cell material: Lysate mix),pIC50 ([1]; cell material: Jurkat cells),pIC50 ([1]; cell material: Jurkat lysate),pIC50 ([3]; cell material: Jurkat cells),pIC50 ([3]; cell material: Jurkat lysate),pIC50 ([4]; cell material: Jurkat cells),pIC50 ([4]; cell material: Jurkat lysate),pIC50 ([5]; cell material: Jurkat cells),pIC50 ([5]; cell material: Jurkat lysate),pIC50 ([6]; cell material: Jurkat cells),pIC50 ([6]; cell material: Jurkat lysate)
Cc1cc(Nc2cc(C(=O)NCCNC(=O)OC3CC/C=C/CCC3)nc(N3CCN(Cc4ccc(S(=O)(=O)F)cc4)CC3)n2)n[nH]1 (stereo not given),< 4.52,< 4.52,< 4.52,< 4.52,< 4.52,< 4.52,,,,,,,,,,
O=C(NCCNC(=O)c1cc(Nc2cc(C3CC3)[nH]n2)nc(N2CCN(Cc3ccc(S(=O)(=O)F)cc3)CC2)n1)OC1CC/C=C/CCC1 (stereo not given),,< 4.52,< 4.52,< 4.52,< 4.52,< 4.52,5.78,< 4.52,< 4.52,< 4.52,5.3,< 4.52,< 4.52,< 4.52,6.38,< 4.52
C#CCNC(=O)c1cc(Nc2cc(C3CC3)[nH]n2)nc(N2CCN(Cc3ccc(S(=O)(=O)F)cc3)CC2)n1,5.49,< 4.52,< 4.52,6,< 4.52,5.58,5.98,< 4.52,< 4.52,< 4.52,6.08,5.37,5.42,< 4.52,6.84,5.43

# Second part, led by results:
pIC50 ([1]; cell material: Lysate mix),pIC50 [2],pIC50 ([3]; cell material: Lysate mix),pIC50 ([4]; cell material: Lysate mix),pIC50 ([5]; cell material: Lysate mix),pIC50 ([6]; cell material: Lysate mix),SMILES,pIC50 ([1]; cell material: Jurkat cells),pIC50 ([1]; cell material: Jurkat lysate),pIC50 ([3]; cell material: Jurkat cells),pIC50 ([3]; cell material: Jurkat lysate),pIC50 ([4]; cell material: Jurkat cells),pIC50 ([4]; cell material: Jurkat lysate),pIC50 ([5]; cell material: Jurkat cells),pIC50 ([5]; cell material: Jurkat lysate),pIC50 ([6]; cell material: Jurkat cells),pIC50 ([6]; cell material: Jurkat lysate)
5.27,< 4.52,< 4.52,5.06,< 4.52,5.06,C#CCNC(=O)c1cc(Nc2cc(C)[nH]n2)nc(N2CCN(Cc3ccc(S(=O)(=O)F)cc3)CC2)n1,,,,,,,,,,
5.04,< 4.52,< 4.52,4.78,< 4.52,5.22,CCNC(=O)c1cc(Nc2cc(C)[nH]n2)nc(N2CCN(Cc3ccc(S(=O)(=O)F)cc3)CC2)n1,,,,,,,,,,
5.37,< 4.52,< 4.52,5.78,< 4.52,5.52,CCNC(=O)c1cc(Nc2cc(C3CC3)[nH]n2)nc(N2CCN(Cc3ccc(S(=O)(=O)F)cc3)CC2)n1,,,,,,,,,,
